Laboratory results taken from US20090269795A1, “Mutant alpha4betadelta GABAA receptor and methods of treating anxiety or irritability” (priority 2007, published 2009).

System: female C57BL6 mice
Experiment: Elevated plus maze (with or without restraint stress)
Type: in vivo, mouse
Source text: Animal subjects. Prepubertal and pubertal female C57BL6 mice (3½-6 weeks old, +/+ and δ^−/−1) were housed in a reverse light:dark cycle (12:12). Both sets of mice were originally supplied by G. Homanics (Univ. of Pittsburgh), and were bred on site, with +/+ mice supplemented from Jackson Laboratories (Bar Harbor, Me.). Initially, age-matched+/+littermates of the δ^−/−were used as controls, but because they were indistinguishable from C57BL6, data from both groups were pooled. Genotyping of the tails verified that mice were homozygous δ^−/−. Some animals (+/+ or δ^−/−) were injected with finasteride (1,(5α)-androstene-4-aza-3-one-N-tert-butyl-17β-carboxaminde, Steraloids, 50 mg kg^, −1 intraperitoneally, 3 days) to block THP synthesis^2 or oil vehicle on a daily basis 1-1.5 h before dark onset, when THP levels increase, and tested 30 min. later. The onset of puberty was determined by vaginal opening, and pubertal mice tested on the day of first metestrus, identified by vaginal morphology and verification of first estrus the previous day. Mice with vaginal smears representative of diestrus were excluded from the study. Individual stages of puberty were not distinguished, and pre-pubertal mice were used before any visible signs of pubertal development, assessed by development of the peri-vaginal area. In some cases, pubertal mice were injected with replacement THP (3α-OH-5β-pregnan-20-one, 10 mg kg^−1, intraperitoneally in oil) for three days before testing. Procedures were in accordance with the SUNY Downstate Institutional Animal Care and Use Committee.
Restraint stress. In order to test the effect stress-induced release of THP^6,46,47 on anxiety, mice were restrained in a clear Plexiglas tube-type holder (Harvard Apparatus) for 45 min. and tested 20 min. later on the elevated plus maze (see Supplementary Methods). Open arm time was evaluated for 5 min. on the elevated plus maze. A decrease in open arm time reflects an increase in anxiety^18. In all cases, the results from each mouse tested after restraint was expressed relative to the averaged results from the sham controls, which were identical to the stressed animals (age, genotype, sex, drug-injected), except that they were not subjected to restraint stress.
Elevated plus maze. Testing rodent behavior on the elevated plus maze is an established animal model of anxiety^31. The plus maze consists of four 8×35 cm arms at 90° angles, elevated 57 cm above the floor. Two arms are enclosed by 33 cm walls, and two arms have no walls (“open arms”). […] Each animal was initially acclimated to the room for 30 min-1 h before being placed in the center of the maze, and exploratory activity recorded for 5 min. […]

CC(=O)[C@H]1CC[C@H]2[C@@H]3CC[C@H]4C[C@H](O)CC[C@]4(C)[C@H]3CC[C@]12C [THP, 3α-OH-5α[β]-pregnan-20-one]
decrease of open arm time (10 mg kg−1 intraperitoneally, acute, after onset of puberty): 35±8%
locomotor activity (10 mg kg−1 intraperitoneally, after onset of puberty): without changing locomotor activity
anxiety response to stress after steroid replacement (replacement THP 10 mg kg−1 i.p. for three days at puberty): did not exhibit an anxiety response to stress
